Data: US9822130B2, “Triazolo-pyrazinyl derivatives useful as soluble guanylate cyclase activators” (Merck Sharp & Dohme Corp., priority 2014, dated 2017)

Each compound was assayed against T1, sGC α1/β1 heterodimer stably expressed in CHO-K1 cell line (CHO-K1/sGC) (Homo sapiens, UniProt Q02108+Q02153) (assay: Cell-based sGC Functional Assay (CASA Assay), cGMP generation). Details: CHO-K1/sGC cells, 1 hr at 37° C., cGMP by HTRF, 4P fit; presence or absence of 1 μM DETA-NO not given; read-out: IP (nM) (inflection point).
T1 construct: expressed in transfected cells
T1 sequence (Q02108 1-690): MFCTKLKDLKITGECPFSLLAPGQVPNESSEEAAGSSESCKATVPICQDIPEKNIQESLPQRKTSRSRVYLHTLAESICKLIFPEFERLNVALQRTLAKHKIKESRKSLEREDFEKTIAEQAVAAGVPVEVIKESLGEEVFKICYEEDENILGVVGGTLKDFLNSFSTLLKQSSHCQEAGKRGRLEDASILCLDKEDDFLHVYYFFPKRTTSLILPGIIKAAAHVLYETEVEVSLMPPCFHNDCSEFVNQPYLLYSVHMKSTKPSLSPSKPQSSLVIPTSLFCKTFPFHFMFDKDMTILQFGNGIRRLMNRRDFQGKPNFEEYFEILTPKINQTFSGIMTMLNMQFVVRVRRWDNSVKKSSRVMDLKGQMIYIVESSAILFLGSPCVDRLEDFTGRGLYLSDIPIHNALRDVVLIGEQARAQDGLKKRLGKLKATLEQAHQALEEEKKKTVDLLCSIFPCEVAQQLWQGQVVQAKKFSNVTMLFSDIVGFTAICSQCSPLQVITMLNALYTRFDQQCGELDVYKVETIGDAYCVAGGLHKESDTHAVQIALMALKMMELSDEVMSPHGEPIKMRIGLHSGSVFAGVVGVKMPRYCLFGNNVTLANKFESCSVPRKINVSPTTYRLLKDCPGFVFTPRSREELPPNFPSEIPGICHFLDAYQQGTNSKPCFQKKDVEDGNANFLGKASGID
T1 sequence (Q02153 1-619): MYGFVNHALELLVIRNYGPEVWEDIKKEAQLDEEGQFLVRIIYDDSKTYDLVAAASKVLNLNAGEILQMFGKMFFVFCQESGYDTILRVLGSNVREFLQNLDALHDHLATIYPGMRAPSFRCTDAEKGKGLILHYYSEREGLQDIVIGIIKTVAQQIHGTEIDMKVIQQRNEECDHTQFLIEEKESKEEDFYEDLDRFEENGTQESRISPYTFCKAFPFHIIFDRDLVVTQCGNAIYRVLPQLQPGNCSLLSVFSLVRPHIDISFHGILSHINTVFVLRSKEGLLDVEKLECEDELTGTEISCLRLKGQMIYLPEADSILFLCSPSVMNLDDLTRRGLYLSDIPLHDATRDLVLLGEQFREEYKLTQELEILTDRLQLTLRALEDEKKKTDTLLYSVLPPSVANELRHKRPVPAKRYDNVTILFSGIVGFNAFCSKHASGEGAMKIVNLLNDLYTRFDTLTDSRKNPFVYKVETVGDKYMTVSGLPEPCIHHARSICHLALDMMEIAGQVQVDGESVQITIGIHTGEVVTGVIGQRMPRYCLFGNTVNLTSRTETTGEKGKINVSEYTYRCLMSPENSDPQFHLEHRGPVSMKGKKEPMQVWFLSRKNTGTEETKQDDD
Source text: sGC is a heme-containing enzyme that converts GTP to secondary messenger cGMP. Increases in cGMP levels affect several physiological processes including vasorelaxation through multiple downstream pathways. […] Heme-dependent activators (HDAs) preferentially activate sGC containing a ferrous heme group. To determine the effect of sGC activators on enzyme activity, the CASA assay was developed to monitor the generation of cGMP in a cell line that stably expresses the heterodimeric sGC protein.
A CHO-K1 cell line stably expressing the sGC α1/β1 heterodimer was generated using a standard transfection protocol. CHO-K1 cells were transfected with plasmids pIREShyghsGCα1 and pIRESneo-hsGCβ1 simultaneously using FUGENE reagent. Clones that stably express both subunits were selected with hygromycin and neomycin for ˜2 weeks. Clone #7 was chosen for the assay and was designated CHO-K1/sGC. CHO-K1/sGC cells were maintained in F-K12 medium containing 10% heat-inactivated Fetal Bovine Serum (FBS), 100 μg/mL penicillin/streptomycin, 0.5 mg/mL hygromycin and 0.25 mg/mL G418. The cells were then cryopreserved in LN2. On the day of the assay, cells thawed and resuspended in EBSS Assay Buffer (Sigma, E3024) supplemented with 5 mM MgCl2, 10 mM HEPES (4-(2-hydroxyethyl)piperazine-1-ethanesulfonic acid) and 0.05% BSA (bovine serum albumin) (EAB) and cell density was then adjusted to 4×10^5/mL with EAB, IBMX (3-isobutyl-1-methylxanthin, 0.5 mM) was added to inhibit degradation of cGMP. Compounds were diluted from DMSO stock solutions and added to the assay at a final DMSO concentration of 2.5%. Cells were incubated with compounds in the presence and absence of 1 μM of Diethylenetriamine/nitric oxide adduct (DETA-NO; Sigma, 17018) for 1 hr at 37° C. At the end of the incubation period, the reaction was terminated and the cells were lysed with the detection reagents from Cisbio Kits. The level of intracellular cGMP was determined using an HTRF-based assay kit (CisBio, 62GM2PEC), which detects the displacement of a fluorescence labeled cGMP from its specific antibody. The cGMP produced by test compounds was directly compared to the maximum cGMP production (this value was set to equal 100% activation.) of the published sGC-HDA Compound A:
[drawing 300] (Example 1 in WO 2010/065275, published Jun. 10, 2010). The test compounds' activities were then expressed as a percentage of Compound A, the standard in every experiment. This percent activation was calculated either in the presence or absence of DETA-NO which was then plotted. IP and maximum fold induction was derived using ADA analysis software for 4P fit.
The compounds in the Examples of the instant invention had inflection points (IP) less than or equal to 10 μM and more particularly less than or equal to about 1 μM.

Row | EC50 | Structure (SMILES)
1 | 294 nM | Nc1nc(-c2cn3ncnc3c(CCC(F)(F)C(F)(F)F)n2)nc2c1C(c1cncc(F)c1)(C1CC1)C(=O)N2 (centres unmarked) [Example 8B, 4-amino-5-cyclopropyl-5-(5-fluoropyridin-3-yl)-2-(8-(3,3,4,4,4-pentafluorobutyl)-[1,2,4]triazolo[1,5-a]pyrazin-6-yl)-5H-pyrrolo[2,3-d]pyrimidin-6(7H)-one]
2 | 63 nM | CC1(c2cncc(F)c2)C(=O)Nc2nc(-c3cn4ncnc4c(CCC(F)(F)C(F)(F)F)n3)nc(N)c21 (centres unmarked) [Example 9A, 4-amino-5-(5-fluoropyridin-3-yl)-5-methyl-2-(8-(3,3,4,4,4-pentafluorobutyl)-[1,2,4]triazolo[1,5-a]pyrazin-6-yl)-5H-pyrrolo[2,3-d]pyrimidin-6(7H)-one]
3 | 15.8 nM | CC1(c2ccc(Cl)cc2)C(=O)Nc2nc(-c3cn4ncnc4c(CCC(F)(F)C(F)(F)F)n3)nc(N)c21 (centres unmarked) [Example 10A, 4-amino-5-(4-chlorophenyl)-5-methyl-2-(8-(3,3,4,4,4-pentafluorobutyl)-[1,2,4]triazolo[1,5-a]pyrazin-6-yl)-5H-pyrrolo[2,3-d]pyrimidin-6(7H)-one]
4 | 25.2 nM | CC1(c2ccccn2)C(=O)Nc2nc(-c3cn4ncnc4c(CCC(F)(F)C(F)(F)F)n3)nc(N)c21 (centres unmarked) [Example 11B, 4-amino-5-methyl-2-(8-(3,3,4,4,4-pentafluorobutyl)-[1,2,4]triazolo[1,5-a]pyrazin-6-yl)-5-(pyridin-2-yl)-5H-pyrrolo[2,3-d]pyrimidin-6(7H)-one]
5 | 11.1 nM | CC1(c2ccccc2)C(=O)Nc2nc(-c3cn4ncnc4c(CCC(F)(F)C(F)(F)F)n3)nc(N)c21 (centres unmarked) [Example 12B, 4-amino-5-methyl-2-(8-(3,3,4,4,4-pentafluorobutyl)-[1,2,4]triazolo[1,5-a]pyrazin-6-yl)-5-phenyl-5H-pyrrolo[2,3-d]pyrimidin-6(7H)-one]
6 | 80.6 nM | CC1(c2ccc(C3CC3)nc2)C(=O)Nc2nc(-c3cn4ncnc4c(CCC(F)(F)C(F)(F)F)n3)nc(N)c21 (centres unmarked) [Example 13B, 4-amino-5-(6-cyclopropylpyridin-3-yl)-5-methyl-2-(8-(3,3,4,4,4-pentafluorobutyl)-[1,2,4]triazolo[1,5-a]pyrazin-6-yl)-5H-pyrrolo[2,3-d]pyrimidin-6(7H)-one]
7 | 5.5 nM | CC1(c2cccc(F)c2)C(=O)Nc2nc(-c3cn4ncnc4c(CCC(F)(F)C(F)(F)F)n3)nc(N)c21 (centres unmarked) [Example 14B, 4-amino-5-(3-fluorophenyl)-5-methyl-2 (8-(3,3,4,4,4-pentafluorobutyl)-[1,2,4]triazolo[1,5-a]pyrazin-6-yl)-5H-pyrrolo[2,3-d]pyrimidin-6(7H)-one]
8 | 316 nM | Nc1nc(-c2cn3ncnc3c(CCC(F)(F)C(F)(F)F)n2)nc2c1C(c1ccc(C(F)(F)F)cn1)(C1CC1)C(=O)N2 (centres unmarked) [Example 15A, 4-amino-5-cyclopropyl-2-(8-(3,3,4,4,4-pentafluorobutyl)-[1,2,4]triazolo[1,5-a]pyrazin-6-yl)-5-(5-(trifluoromethyl)pyridin-2-yl)-5H-pyrrolo[2,3-d]pyrimidin-6(7H)-one]
9 | 38.6 nM | CC1(c2ccc(C#N)cn2)C(=O)Nc2nc(-c3cn4ncnc4c(CCC(F)(F)C(F)(F)F)n3)nc(N)c21 (centres unmarked) [Example 18A, 6-(4-amino-5-methyl-6-oxo-2-(8-(3,3,4,4,4-pentafluorobutyl)-[1,2,4]triazolo[1,5-a]pyrazin-6-yl)-6,7-dihydro-5H-pyrrolo[2,3-d]pyrimidin-5-yl)nicotinonitrile]
10 | 14.7 nM | Cc1ccc(C2(C)C(=O)Nc3nc(-c4cn5ncnc5c(CCC(F)(F)C(F)(F)F)n4)nc(N)c32)nc1 (centres unmarked) [Example 19B, 4-amino-5-methyl-5-(5-methylpyridin-2-yl)-2-(8-(3,3,4,4,4-pentafluorobutyl)-[1,2,4]triazolo[1,5-a]pynizin-6-yl)-5H-pyrrolo[2,3-d]pyrimidin-6(7H)-one]
11 | 176 nM | CC(C)n1cc(C2(C)C(=O)Nc3nc(-c4cn5ncnc5c(CCC(F)(F)C(F)(F)F)n4)nc(N)c32)nn1 (centres unmarked) [Example 20A, 4-amino-5-(1-isopropyl-1H-1,2,3-triazol-4-yl)-5-methyl-2-(8-(3,3,4,4,4-pentafluorobutyl)-[1,2,4]triazolo[1,5-a]pyrazin-6-yl)-5H-pyrrolo[2,3-d]pyrimidin-6(7H)-one]
12 | 38.3 nM | CC1(c2ccc(F)cn2)C(=O)Nc2nc(-c3cn4ncnc4c(CCCC(F)(F)F)n3)nc(N)c21 (centres unmarked) [Example 22B, 4-amino-5-(5-fluoropyridin-2-yl)-5-methyl-2-(8-(4,4,4-trifluorobutyl)-[1,2,4]triazolo[1,5-a]pyrazin-6-yl)-5H-pyrrolo[2,3-d]pyrimidin-6(7H)-one]
13 | 29.6 nM | C[C@@]1(c2ccc(F)cc2)C(=O)Nc2nc(-c3cn4ncnc4c(CCCC(F)(F)F)n3)nc(N)c21 [Example 23A, (S)-4-amino-5-(4-fluorophenyl)-5-mclhyl-2-(S-(4,4,4-trifluorobutyl)-[1,2,4]triazolo[1,5-a]pyrazin-6-yl)-5,7-dihydro-6H-pyrrolo[2,3-d]pyrimidin-6-one]
14 | 27.1 nM | CC1(c2ccc(C(F)(F)F)cc2)C(=O)Nc2nc(-c3cn4ncnc4c(CCCC(F)(F)F)n3)nc(N)c21 (centres unmarked) [Example 24B, 4-amino-5-methyl-2-(8-(4,4,4-trifluorobutyl)-[1,2,4]triazolo[1,5-a]pyrazin-6-yl)-5-(4-(trifluoromethyl)phenyl)-5H-pyrrolo[2,3-d]pyrimidin-6(7H)-one]
15 | 27 nM | CC1(c2ccc(C(F)(F)F)cn2)C(=O)Nc2nc(-c3cn4ncnc4c(CCCC(F)(F)F)n3)nc(N)c21 (centres unmarked) [Example 25B, 4-amino-5-methyl-2-(8-(4,4,4-trifluorobutyl)-[1,2,4]triazolo[1,5-a]pyrazin-6-yl)-5-(5-(trifluoromethyl)pyridin-2-yl)-5H-pyrrolo[2,3-d]pyrimidin-6(7H)-one]
16 | 27.8 nM | CC1(c2ccc(Cl)cn2)C(=O)Nc2nc(-c3cn4ncnc4c(CCCC(F)(F)F)n3)nc(N)c21 (centres unmarked) [Example 26A, 4-amino-5-(5-chloropyridin-2-yl)-5-methyl-2-(8-(4,4,4-trifluorobutyl)-[1,2,4]triazolo[1,5-a]pyrazin-6-yl)-5H-pyrrolo[2,3-d]pyriniidin-6(7H)-one]

Same assay, conditions: CHO-K1/sGC cells, 1 hr at 37° C., cGMP by HTRF; presence or absence of 1 μM DETA-NO not given; read-out: % Act. (percent activation relative to maximum cGMP production of Compound A = 100%)

Row | Emax | Structure (SMILES)
17 | 90% | CC1(c2cccc(F)c2)C(=O)Nc2nc(-c3cn4ncnc4c(CCC(F)(F)C(F)(F)F)n3)nc(N)c21 (centres unmarked) [Example 14B, 4-amino-5-(3-fluorophenyl)-5-methyl-2 (8-(3,3,4,4,4-pentafluorobutyl)-[1,2,4]triazolo[1,5-a]pyrazin-6-yl)-5H-pyrrolo[2,3-d]pyrimidin-6(7H)-one]
